Reference: ChEMBL document CHEMBL1201862, “PubChem BioAssay data set” (2004)
The source made the active and inactive calls.

Tests used:
Aminopeptidase N = target: T1, Aminopeptidase N (Plasmodium falciparum FcB1/Columbia, UniProt O96935); experiment: malaria alanyl aminopeptidase activity blockers – biochemical, fluorogenic H-Leu-NHMec substrate, 1536-well (AID 1445); design: species or system Plasmodium falciparum 3D7, 3D7
T1 sequence (O96935 whole entry): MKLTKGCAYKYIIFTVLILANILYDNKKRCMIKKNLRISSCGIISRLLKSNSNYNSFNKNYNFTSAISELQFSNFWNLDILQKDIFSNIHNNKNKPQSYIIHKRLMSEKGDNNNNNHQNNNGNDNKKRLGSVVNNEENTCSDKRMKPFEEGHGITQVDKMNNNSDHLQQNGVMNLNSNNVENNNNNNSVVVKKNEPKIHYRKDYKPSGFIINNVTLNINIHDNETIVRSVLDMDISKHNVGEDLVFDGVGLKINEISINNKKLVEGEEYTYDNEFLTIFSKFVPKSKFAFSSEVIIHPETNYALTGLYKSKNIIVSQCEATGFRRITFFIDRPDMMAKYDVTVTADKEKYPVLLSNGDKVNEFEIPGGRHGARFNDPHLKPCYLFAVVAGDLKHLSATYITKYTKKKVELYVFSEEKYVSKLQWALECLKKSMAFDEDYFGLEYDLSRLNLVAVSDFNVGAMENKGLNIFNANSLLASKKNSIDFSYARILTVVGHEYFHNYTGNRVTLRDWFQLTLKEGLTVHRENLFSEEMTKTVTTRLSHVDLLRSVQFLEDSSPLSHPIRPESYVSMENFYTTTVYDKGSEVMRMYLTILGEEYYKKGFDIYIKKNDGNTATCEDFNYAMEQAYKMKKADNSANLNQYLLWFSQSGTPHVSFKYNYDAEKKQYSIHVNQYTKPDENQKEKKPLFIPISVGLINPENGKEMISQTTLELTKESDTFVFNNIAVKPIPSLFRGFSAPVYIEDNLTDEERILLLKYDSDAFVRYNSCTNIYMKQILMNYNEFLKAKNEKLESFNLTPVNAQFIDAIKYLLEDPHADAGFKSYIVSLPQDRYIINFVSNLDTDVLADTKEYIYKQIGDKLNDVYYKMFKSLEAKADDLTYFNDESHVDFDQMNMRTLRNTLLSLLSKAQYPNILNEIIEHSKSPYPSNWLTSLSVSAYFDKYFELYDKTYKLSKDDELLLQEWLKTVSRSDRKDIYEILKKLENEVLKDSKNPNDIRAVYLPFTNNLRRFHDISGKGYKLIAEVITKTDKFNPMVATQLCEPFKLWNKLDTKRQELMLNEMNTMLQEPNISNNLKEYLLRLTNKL

Galanin receptor type 2 = Galanin receptor type 2 (Homo sapiens, UniProt O43603); experiment: Dose Response cell-based high-throughput screening assay to identify agonists of galanin receptor 2 (GALR2). [Related pubchem assays: 864 ]; format: functional
[1] = target: T2, Short transient receptor potential channel 4 (Mus musculus, UniProt Q9QUQ5); experiment: calcium entry via TRPC4 opening agents – cell-based, HEK293 TRPC4/mu-opioid, Fluo-4 calcium, dose response (AID 434937); format: functional
T2 sequence (Q9QUQ5 whole entry): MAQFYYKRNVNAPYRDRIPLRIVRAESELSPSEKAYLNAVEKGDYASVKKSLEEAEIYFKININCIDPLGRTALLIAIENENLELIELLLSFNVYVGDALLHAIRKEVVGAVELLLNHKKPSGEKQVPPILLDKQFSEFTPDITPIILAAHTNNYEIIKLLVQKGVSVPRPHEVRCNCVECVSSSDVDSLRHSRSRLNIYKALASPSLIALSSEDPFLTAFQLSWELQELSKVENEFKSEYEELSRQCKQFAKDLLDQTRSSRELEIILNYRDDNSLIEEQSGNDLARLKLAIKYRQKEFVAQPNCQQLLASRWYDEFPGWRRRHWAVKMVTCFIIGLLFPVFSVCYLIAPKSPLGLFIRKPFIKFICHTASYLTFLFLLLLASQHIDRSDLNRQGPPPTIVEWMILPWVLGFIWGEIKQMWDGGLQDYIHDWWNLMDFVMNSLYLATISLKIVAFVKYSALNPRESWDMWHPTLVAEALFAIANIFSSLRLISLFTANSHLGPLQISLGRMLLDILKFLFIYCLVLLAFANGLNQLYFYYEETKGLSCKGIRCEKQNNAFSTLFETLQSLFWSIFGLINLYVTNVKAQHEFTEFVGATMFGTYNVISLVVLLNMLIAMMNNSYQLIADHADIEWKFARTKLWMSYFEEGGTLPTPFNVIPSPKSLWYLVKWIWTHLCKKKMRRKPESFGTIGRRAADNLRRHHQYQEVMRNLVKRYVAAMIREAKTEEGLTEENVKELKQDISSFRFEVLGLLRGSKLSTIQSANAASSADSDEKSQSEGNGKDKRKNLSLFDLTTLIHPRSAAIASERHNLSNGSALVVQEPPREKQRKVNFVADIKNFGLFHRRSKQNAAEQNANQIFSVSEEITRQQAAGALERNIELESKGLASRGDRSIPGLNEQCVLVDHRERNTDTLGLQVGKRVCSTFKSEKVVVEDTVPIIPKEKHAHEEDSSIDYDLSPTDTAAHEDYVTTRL

[2] = target: Delta-type opioid receptor (Homo sapiens, UniProt P41143); experiment: Counterscreen for agonists of heterodimerization of the mu 1 (OPRM1) and delta 1 (OPRD1) opioid receptors: Luminescence-based cell-based high throughput dose response assay to identify agonists of OPRD1 homodimerization. [Related pubchem assays (depositor defined):AID504326, AID504355, AID504692, AID504904, AID504905]; format: functional
Mu-type opioid receptor = Mu-type opioid receptor (Homo sapiens, UniProt P35372); experiment: Counterscreen for agonists of heterodimerization of the mu 1 (OPRM1) and delta 1 (OPRD1) opioid receptors: Luminescence-based cell-based high throughput dose response assay to identify agonists of OPRM1 homodimerization.; format: functional;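 also: U2OS cells expressing OPRM1 and beta-arrestin as split beta-galactosidase partners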
[3] = target: 5-hydroxytryptamine receptor 5A (Homo sapiens, UniProt P47898); experiment: Counterscreen for agonists of OPRM1-OPRD1 heterodimerization: luminescence-based cell-based high throughput dose response assay to identify agonists of 5-hydroxytryptamine (serotonin) 5A receptor (HTR5A). [Related pubchem assays (depositor defined):AID504326, AID504355, AID504692, AID504904, AID504905]; format: functional
Vero = experiment: cells; format: functional; conditions: Chlorocebus sabaeus
[4] = target: T3, DNA repair protein RAD52 homolog (Homo sapiens, UniProt P43351); format: functional, biochemical
T3 sequence (P43351 whole entry): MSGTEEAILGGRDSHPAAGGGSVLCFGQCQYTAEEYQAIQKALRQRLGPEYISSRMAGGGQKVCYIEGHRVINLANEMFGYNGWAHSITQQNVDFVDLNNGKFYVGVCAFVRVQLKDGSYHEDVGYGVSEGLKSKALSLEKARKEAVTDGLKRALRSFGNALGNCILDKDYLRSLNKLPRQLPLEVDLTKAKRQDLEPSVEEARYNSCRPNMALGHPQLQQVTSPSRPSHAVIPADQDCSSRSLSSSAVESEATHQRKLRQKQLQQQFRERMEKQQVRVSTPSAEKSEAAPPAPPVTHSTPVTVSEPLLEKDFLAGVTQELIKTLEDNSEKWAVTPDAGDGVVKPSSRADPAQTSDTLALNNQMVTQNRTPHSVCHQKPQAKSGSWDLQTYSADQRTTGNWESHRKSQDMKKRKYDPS

[5] = target: Protein-tyrosine kinase 2-beta (Homo sapiens, UniProt Q14289);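 also: potency of inhibitors of PYK2 kinase phosphorylation of poly-GT substrate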
[6] = target: Luciferin 4-monooxygenase (Photinus pyralis, UniProt P08659); experiment: inhibition of purified Photinus pyralis luciferase – biochemical, luminescence, dose response (AID 1891)
[7] = Luminescence Cell-Based Dose Confirmation HTS to Identify Inhibitors of Platelet Dense Granule Release. [Related pubchem assays: 1663 (Primary HTS), 1678 (Summary of Project)]; format: functional
[8] = Fluorescence Cell-Based Dose Response to Identify Inhibitors of Thrombin Receptor-Activating Peptide SFLLRN-Mediated P-Selectin Induction on Platelets. [Related pubchem assays: 1663 (Primary HTS), 1889 (retest at dose ), 1891 (counterscreen), 1678 (Project Summary)]; format: functional

Sequence of Luciferin 4-monooxygenase (P08659 whole entry): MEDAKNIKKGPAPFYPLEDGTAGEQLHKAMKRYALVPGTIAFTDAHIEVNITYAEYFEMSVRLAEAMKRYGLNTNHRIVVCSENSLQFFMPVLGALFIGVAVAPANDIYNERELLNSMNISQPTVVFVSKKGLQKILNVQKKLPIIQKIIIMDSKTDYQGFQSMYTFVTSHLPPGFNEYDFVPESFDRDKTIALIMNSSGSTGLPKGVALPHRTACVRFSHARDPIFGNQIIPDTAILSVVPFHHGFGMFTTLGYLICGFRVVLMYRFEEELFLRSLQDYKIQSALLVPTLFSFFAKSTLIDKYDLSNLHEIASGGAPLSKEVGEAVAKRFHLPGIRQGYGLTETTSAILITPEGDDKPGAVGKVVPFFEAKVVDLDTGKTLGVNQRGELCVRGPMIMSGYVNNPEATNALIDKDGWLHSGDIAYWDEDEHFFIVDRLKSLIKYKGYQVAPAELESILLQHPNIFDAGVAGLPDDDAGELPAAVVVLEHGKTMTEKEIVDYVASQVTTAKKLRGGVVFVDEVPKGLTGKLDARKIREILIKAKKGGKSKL
Sequence of Protein-tyrosine kinase 2-beta (Q14289 whole entry): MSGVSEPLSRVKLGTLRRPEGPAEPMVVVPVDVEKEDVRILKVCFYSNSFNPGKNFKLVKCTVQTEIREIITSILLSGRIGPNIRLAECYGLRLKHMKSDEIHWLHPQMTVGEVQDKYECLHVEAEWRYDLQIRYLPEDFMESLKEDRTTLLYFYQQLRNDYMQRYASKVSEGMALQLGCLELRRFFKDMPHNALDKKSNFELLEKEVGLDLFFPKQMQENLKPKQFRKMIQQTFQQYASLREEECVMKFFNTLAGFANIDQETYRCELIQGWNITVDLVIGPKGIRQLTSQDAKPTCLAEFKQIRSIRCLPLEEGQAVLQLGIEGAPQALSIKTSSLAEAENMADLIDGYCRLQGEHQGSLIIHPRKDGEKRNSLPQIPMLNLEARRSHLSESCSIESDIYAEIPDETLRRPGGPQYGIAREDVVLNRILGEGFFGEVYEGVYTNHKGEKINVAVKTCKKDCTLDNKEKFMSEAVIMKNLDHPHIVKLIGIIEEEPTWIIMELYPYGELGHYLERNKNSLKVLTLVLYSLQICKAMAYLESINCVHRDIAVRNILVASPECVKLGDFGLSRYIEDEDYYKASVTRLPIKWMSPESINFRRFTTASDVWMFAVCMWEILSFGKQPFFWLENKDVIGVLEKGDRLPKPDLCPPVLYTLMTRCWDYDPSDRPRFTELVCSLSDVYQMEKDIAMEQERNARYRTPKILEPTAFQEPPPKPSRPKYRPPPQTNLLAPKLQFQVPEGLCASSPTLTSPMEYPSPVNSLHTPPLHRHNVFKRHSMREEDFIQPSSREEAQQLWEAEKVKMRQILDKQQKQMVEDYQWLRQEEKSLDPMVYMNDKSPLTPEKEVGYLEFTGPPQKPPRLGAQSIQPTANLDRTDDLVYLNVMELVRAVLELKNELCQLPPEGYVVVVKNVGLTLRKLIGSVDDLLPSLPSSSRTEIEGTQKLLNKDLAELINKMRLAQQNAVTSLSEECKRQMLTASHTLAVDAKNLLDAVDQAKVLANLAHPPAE
Sequence of Mu-type opioid receptor (P35372 whole entry): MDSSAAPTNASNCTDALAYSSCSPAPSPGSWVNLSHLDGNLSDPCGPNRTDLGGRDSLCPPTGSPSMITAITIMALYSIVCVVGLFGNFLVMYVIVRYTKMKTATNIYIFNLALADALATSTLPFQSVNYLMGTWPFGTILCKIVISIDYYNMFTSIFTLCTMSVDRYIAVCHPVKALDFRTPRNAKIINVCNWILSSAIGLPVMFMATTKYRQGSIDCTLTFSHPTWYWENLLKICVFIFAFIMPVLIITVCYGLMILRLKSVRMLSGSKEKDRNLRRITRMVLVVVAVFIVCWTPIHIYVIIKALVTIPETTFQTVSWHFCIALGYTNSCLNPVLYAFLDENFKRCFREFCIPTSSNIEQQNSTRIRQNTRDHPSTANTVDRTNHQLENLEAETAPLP
Sequence of 5-hydroxytryptamine receptor 5A (P47898 whole entry): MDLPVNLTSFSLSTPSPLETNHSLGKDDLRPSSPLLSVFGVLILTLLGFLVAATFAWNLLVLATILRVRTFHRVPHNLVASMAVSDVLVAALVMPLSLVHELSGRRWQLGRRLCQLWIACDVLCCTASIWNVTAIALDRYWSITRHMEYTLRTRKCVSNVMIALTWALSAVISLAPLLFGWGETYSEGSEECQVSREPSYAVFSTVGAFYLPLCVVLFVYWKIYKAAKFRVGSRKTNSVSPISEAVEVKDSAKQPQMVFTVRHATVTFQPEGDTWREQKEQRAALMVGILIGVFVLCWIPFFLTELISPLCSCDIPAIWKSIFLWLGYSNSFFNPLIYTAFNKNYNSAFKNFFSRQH
Sequence of Galanin receptor type 2 (O43603 whole entry): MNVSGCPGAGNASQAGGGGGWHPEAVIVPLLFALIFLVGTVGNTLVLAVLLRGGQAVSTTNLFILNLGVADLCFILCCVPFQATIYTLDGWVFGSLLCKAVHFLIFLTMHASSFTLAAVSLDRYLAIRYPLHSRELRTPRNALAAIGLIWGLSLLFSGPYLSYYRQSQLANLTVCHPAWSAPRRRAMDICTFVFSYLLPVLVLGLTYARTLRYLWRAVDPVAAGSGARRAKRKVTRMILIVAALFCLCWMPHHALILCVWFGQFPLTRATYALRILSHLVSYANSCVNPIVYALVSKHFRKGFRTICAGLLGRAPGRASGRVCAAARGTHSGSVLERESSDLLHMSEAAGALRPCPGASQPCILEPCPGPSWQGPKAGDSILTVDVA
Sequence of Delta-type opioid receptor (P41143 whole entry): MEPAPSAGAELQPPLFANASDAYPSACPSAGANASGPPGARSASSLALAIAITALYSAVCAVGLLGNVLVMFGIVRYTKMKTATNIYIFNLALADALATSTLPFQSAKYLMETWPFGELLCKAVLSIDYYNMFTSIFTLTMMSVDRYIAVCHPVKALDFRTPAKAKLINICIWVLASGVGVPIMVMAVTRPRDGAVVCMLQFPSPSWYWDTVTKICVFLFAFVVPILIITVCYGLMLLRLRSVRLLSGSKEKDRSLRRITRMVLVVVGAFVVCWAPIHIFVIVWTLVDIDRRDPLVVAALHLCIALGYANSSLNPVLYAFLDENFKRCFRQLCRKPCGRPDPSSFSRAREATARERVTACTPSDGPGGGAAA

## COc1cc2c3cc1Oc1cc(ccc1O)C[C@@H]1c4c(cc(OC)c(O)c4Oc4ccc(cc4)C[C@H]3N(C)CC2)CCN1C
Aminopeptidase N
  IC50: 15.2 µM (active)
Galanin receptor type 2
  EC50: > 55.7 µM (not active)
[1]
  EC50: 1.33 µM (active)
[2]
  EC50: 44.2 µM (inactive)
Mu-type opioid receptor
  EC50: > 92.4 µM (inactive)
[3]
  EC50: 79.2 µM (inactive)
Vero
  CC50: 24.6 µM (active)
[4]
  AC50: 35.2 µM (active)

## Cc1n[nH]c(NC=C2C(=O)CC(C)(C)CC2=O)c1-c1ccccc1
[5]
  IC50: 21 µM (not active)

## COC(=O)c1ccccc1NC(=O)Nc1ccc2c(c1)OCO2
[6]
  EC50: > 112 µM (not active)
[7]
  EC50: 5.7 µM (active)
[8]
  EC50: < 100 µM (not active)
